Test results from ChEMBL document CHEMBL1131296 (J Med Chem, 1998).

Experiments:
[1] = molecular target: T1, Alpha-1D adrenergic receptor (Homo sapiens, UniProt P25100); test: Binding affinity at human cloned Alpha-1D adrenergic receptor in chinese hamster ovary cells by [3H]prazosin displacement.; format: cell-based, CHO
T1 sequence (P25100 whole entry): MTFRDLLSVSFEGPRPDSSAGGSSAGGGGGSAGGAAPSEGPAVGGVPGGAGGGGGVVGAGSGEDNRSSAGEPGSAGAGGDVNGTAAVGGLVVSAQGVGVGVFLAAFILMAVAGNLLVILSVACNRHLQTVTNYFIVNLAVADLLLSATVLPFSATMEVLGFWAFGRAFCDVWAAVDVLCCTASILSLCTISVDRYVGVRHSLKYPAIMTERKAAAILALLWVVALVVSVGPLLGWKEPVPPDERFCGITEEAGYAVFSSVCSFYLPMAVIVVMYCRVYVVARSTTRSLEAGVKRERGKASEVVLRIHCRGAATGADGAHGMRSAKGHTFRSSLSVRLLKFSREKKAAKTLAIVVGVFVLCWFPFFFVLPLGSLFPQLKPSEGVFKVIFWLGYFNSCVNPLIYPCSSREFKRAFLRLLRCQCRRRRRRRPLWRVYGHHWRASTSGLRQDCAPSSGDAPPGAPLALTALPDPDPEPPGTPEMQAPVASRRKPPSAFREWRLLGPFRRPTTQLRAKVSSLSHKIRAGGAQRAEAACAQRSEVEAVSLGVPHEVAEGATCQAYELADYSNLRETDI

[2] = molecular target: T2, Alpha-1A adrenergic receptor (Homo sapiens, UniProt P35348); test: Binding affinity at human cloned Alpha-1A adrenergic receptor in chinese hamster ovary cells by [3H]-prazosin displacement.; format: cell-based, CHO
T2 sequence (P35348 whole entry): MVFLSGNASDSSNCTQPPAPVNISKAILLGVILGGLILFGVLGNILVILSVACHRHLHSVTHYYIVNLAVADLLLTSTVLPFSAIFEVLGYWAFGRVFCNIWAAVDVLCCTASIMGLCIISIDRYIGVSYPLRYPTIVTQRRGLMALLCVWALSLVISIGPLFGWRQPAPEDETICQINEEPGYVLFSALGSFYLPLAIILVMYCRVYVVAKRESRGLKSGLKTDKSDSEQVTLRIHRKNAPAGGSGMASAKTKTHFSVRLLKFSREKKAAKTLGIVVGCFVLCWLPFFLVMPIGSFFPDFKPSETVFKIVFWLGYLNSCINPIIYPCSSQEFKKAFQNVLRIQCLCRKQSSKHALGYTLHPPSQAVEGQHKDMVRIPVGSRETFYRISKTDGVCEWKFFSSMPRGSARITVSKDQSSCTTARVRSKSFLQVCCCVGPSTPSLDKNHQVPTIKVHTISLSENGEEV

[3] = molecular target: T3, Alpha-1B adrenergic receptor (Homo sapiens, UniProt P35368); test: Binding affinity at human cloned Alpha-1B adrenergic receptor in chinese hamster ovary cells by [3H]prazosin displacement.; format: cell-based, CHO
T3 sequence (P35368 whole entry): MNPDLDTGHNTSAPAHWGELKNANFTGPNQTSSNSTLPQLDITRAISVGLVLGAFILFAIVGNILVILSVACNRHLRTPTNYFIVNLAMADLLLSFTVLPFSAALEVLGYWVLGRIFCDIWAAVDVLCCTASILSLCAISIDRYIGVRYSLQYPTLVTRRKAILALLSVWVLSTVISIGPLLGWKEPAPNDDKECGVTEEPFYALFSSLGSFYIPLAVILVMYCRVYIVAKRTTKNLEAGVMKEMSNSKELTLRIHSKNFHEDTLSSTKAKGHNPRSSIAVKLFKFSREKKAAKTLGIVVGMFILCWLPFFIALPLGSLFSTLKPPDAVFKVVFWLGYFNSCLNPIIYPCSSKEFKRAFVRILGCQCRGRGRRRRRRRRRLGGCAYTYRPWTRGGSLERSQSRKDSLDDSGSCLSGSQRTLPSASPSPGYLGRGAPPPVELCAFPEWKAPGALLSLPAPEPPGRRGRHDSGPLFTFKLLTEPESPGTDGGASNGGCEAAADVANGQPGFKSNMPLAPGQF

[4] = molecular target: T4, Adrenergic receptor alpha-2 (Rattus norvegicus, UniProt P22086+P19328+P22909); test: Antagonism of the clonidine-induced depression of twitch responses of rat isolated prostatic vas deferens.
T4 sequence (P22086 whole entry): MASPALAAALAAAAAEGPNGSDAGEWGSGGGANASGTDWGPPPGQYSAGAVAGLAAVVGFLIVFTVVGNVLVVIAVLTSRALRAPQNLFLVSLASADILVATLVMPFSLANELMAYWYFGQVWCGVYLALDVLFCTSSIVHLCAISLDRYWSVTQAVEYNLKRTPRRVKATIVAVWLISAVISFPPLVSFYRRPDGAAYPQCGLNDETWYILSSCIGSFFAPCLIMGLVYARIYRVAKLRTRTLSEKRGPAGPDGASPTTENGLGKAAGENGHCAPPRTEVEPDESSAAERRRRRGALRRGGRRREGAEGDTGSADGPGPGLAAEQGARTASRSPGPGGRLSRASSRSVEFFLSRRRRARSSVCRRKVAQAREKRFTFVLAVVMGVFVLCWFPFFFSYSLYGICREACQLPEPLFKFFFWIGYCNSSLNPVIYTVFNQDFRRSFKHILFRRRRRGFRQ
T4 sequence (P19328 whole entry): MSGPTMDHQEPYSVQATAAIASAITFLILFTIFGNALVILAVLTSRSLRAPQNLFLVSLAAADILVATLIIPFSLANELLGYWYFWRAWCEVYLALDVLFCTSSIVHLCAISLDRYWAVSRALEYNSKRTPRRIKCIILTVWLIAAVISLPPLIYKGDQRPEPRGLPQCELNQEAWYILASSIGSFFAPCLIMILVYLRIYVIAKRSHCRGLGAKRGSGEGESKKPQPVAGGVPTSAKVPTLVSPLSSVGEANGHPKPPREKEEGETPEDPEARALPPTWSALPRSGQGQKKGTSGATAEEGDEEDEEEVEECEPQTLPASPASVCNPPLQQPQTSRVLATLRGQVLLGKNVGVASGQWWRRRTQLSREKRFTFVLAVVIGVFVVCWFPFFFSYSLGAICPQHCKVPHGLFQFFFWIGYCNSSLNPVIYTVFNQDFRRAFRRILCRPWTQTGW
T4 sequence (P22909 whole entry): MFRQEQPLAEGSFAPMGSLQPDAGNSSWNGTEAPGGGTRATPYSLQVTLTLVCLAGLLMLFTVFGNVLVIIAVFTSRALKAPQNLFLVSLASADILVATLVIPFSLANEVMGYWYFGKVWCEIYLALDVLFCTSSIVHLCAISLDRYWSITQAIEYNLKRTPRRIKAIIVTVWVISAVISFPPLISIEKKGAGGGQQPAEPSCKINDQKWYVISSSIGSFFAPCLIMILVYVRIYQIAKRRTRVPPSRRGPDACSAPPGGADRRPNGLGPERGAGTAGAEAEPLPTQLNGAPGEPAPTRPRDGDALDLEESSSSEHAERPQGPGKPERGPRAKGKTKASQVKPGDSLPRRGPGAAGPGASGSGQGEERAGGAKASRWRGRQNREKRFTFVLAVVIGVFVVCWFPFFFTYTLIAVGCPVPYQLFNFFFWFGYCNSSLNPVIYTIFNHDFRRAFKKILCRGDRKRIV

[5] = molecular target: D(2) dopamine receptor (Rattus norvegicus, UniProt P61169); test: Binding affinity at native Dopamine receptor D2 in rat striatum by [3H]spiperone displacement.; format: tissue-based
Sequence of D(2) dopamine receptor (P61169 whole entry): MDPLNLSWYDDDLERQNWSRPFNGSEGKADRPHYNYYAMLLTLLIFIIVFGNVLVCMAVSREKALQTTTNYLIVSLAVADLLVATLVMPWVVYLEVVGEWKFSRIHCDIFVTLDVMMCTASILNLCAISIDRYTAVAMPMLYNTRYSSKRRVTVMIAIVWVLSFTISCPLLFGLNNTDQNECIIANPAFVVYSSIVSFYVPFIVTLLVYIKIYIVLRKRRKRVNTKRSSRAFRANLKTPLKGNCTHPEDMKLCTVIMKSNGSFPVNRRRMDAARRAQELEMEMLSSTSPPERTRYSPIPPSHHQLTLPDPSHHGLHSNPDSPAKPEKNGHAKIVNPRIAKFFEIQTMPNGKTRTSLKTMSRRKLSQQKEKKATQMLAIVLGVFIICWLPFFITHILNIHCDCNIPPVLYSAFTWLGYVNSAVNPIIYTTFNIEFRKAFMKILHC

Row | Ki [1] | Ki [2] | Ki [3] | pA2 [4] | Ki [5] | SMILES
1 | 0.195 nM | 0.166 nM | 0.11 nM | 6.66 | – | COc1cc2nc(N(C)CCCCCCN(C)C(=O)c3ccco3)nc(N)c2cc1OC
2 | 0.724 nM | 0.417 nM | 1.07 nM | < 5 | > 10000 nM | COc1cc2nc(N(C)CCSSCCN(C)C(=O)c3ccco3)nc(N)c2cc1OC
